Measurements: US9006450B2 (Boehringer Ingelheim International GmbH, priority 2010, dated 2015)

What follows are compounds tested against T1, human ACC2 (Homo sapiens, UniProt O00763) (assay: ACC2 assay, spectrophotometric 384 well assay (NADH-linked, coupled lactate dehydrogenase/pyruvate kinase)). Conditions: ACC2 assay, hACC2 construct lacking 128 N-terminal amino acids, 25° C., 340 nm; read-out: IC50.
T1 construct: made in house; host or cells: insect cells (baculoviral expression system)
Type: biochemical
Summary of the method: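 Human ACC2 lacking N-terminal 128 aa, baculovirus/insect-cell expressed, anion-exchange purified; 100 mM Tris pH 7.5, 10 mM citrate, 25 mM KHCO3, 1% DMSO. Started with 200 μM NADH and acetyl-CoA plus 500 μM ATP; PK/LDH-coupled A340 decrease read 15 min at 25° C. IC50 by nonlinear fit of low-control-subtracted slopes.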

T1 sequence (O00763 129-2458 limits assumed): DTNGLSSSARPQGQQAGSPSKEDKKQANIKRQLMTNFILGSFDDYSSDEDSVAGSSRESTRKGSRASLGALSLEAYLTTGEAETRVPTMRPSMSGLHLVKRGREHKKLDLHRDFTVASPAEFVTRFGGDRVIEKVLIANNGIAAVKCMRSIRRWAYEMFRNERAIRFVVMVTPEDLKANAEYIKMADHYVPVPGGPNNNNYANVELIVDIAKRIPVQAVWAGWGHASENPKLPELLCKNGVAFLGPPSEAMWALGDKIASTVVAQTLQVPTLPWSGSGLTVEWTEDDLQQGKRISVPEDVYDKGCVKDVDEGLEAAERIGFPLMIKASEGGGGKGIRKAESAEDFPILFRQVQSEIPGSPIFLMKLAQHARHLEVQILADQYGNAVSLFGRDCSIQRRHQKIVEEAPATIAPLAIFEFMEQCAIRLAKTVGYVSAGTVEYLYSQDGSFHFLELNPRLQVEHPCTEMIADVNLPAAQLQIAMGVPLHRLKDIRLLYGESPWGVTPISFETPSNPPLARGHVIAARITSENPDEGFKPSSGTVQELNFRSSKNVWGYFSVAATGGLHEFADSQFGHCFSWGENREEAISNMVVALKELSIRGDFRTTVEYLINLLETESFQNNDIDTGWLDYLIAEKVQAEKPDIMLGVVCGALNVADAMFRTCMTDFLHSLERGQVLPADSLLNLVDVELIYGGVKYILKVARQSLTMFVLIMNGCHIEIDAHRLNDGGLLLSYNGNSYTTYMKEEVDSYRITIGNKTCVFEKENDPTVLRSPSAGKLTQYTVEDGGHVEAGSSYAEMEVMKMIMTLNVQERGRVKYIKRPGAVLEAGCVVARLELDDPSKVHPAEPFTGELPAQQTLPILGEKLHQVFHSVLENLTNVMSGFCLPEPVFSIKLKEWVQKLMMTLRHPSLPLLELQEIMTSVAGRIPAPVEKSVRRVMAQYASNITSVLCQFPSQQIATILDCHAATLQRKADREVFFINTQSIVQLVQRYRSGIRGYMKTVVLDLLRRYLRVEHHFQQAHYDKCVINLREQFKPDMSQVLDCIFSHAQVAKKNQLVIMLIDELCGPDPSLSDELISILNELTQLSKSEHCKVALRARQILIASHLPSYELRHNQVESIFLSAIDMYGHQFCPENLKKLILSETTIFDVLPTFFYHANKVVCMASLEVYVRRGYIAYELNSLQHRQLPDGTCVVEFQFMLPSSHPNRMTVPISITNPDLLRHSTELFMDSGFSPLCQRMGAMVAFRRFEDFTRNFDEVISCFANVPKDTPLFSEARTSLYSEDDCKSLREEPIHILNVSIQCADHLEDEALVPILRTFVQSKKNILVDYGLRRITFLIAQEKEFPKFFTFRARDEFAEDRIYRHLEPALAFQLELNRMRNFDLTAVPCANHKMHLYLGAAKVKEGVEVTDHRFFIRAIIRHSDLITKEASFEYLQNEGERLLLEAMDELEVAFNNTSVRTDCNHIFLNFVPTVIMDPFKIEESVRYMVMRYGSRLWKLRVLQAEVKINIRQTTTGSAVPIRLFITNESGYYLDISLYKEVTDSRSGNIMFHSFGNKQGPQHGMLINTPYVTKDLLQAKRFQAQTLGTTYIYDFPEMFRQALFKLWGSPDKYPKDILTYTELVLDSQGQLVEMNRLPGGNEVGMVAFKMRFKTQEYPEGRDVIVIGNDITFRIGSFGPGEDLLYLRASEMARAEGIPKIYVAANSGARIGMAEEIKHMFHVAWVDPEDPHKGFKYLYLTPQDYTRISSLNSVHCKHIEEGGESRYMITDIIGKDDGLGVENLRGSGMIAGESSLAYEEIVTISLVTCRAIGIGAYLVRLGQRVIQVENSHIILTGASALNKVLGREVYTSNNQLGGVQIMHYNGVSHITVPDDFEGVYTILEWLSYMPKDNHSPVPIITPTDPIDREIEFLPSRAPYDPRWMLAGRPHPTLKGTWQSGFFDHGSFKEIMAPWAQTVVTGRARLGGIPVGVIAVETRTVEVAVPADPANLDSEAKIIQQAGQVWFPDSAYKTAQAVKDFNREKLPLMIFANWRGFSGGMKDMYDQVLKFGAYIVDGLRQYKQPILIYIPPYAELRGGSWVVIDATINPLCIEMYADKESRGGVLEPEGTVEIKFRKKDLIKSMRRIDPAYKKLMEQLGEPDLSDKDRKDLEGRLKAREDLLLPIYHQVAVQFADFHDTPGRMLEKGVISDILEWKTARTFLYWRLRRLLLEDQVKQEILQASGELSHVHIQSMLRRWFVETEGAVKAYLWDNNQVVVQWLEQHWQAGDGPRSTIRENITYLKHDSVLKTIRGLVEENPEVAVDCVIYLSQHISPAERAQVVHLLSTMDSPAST

Structure (SMILES) | IC50 [nM]
COc1ccc(-c2cnc(N3CCC(c4ccc([C@H](C)NC(C)=O)cc4)CC3)nc2)cn1 [Example 10.2] | 200
COc1cccc(-c2cnc(N3CCC(c4ccc([C@H](C)NC(C)=O)cc4)CC3)nc2)c1 [Example 10.3] | 130
COc1ccccc1-c1cnc(N2CCC(c3ccc([C@H](C)NC(C)=O)cc3)CC2)nc1 [Example 10.4] | 2000
CCOc1ccc(-c2cnc(N3CCC(c4ccc([C@H](C)NC(C)=O)cc4)CC3)nc2)cc1 [Example 10.5] | 540
CCc1ccc(-c2cnc(N3CCC(c4ccc([C@H](C)NC(C)=O)cc4)CC3)nc2)cc1 [Example 10.6] | 100
CC(=O)N[C@@H](C)c1ccc(C2CCN(c3ncc(-c4cccc(C)c4)cn3)CC2)cc1 [Example 10.7] | 40
CC(=O)N[C@@H](C)c1ccc(C2CCN(c3ncc(-c4ccccc4C)cn3)CC2)cc1 [Example 10.8] | 200
CC(=O)N[C@@H](C)c1ccc(C2CCN(c3ncc(-c4ccc(F)cc4)cn3)CC2)cc1 [Example 10.9] | 20
CC(=O)N[C@@H](C)c1ccc(C2CCN(c3ncc(-c4ccc(C#N)cc4)cn3)CC2)cc1 [Example 10.10] | 70
CC(=O)N[C@@H](C)c1ccc(C2CCN(c3ncc(-c4ccc(C(C)C)cc4)cn3)CC2)cc1 [Example 10.11] | 5800
CC(=O)N[C@@H](C)c1ccc(C2CCN(c3ncc(-c4cccnc4)cn3)CC2)cc1 [Example 10.12] | 360
CC(=O)N[C@@H](C)c1ccc(C2CCN(c3ncc(-c4ccccc4F)cn3)CC2)cc1 [Example 10.13] | 90
CC(=O)N[C@@H](C)c1ccc(C2CCN(c3ncc(-c4cc5ccccc5o4)cn3)CC2)cc1 [Example 10.14] | 100
CC(=O)N[C@@H](C)c1ccc(C2CCN(c3ncc(-c4ccc(OC(F)(F)F)cc4)cn3)CC2)cc1 [Example 10.15] | 550
CC(=O)N[C@@H](C)c1ccc(C2CCN(c3ncc(-c4ccncc4)cn3)CC2)cc1 [Example 10.16] | 710
CC(=O)N[C@@H](C)c1ccc(C2CCN(c3ncc(-c4ccc(CC#N)cc4)cn3)CC2)cc1 [Example 10.18] | 180
CC(=O)N[C@@H](C)c1ccc(C2CCN(c3ncc(-c4c(C)noc4C)cn3)CC2)cc1 [Example 10.20] | 2700
CC(=O)N[C@@H](C)c1ccc(C2CCN(c3ncc(-c4cnc5ccccc5c4)cn3)CC2)cc1 [Example 10.21] | 70
COc1ncc(-c2cnc(N3CCC(c4ccc([C@H](C)NC(C)=O)cc4)CC3)nc2)cn1 [Example 10.22] | 1100
CC(=O)N[C@@H](C)c1ccc(C2CCN(c3ncc(-c4ccc5c(c4)OCCO5)cn3)CC2)cc1 [Example 10.23] | 290
CC(=O)N[C@@H](C)c1ccc(C2CCN(c3ncc(-c4ccc5c(c4)CCO5)cn3)CC2)cc1 [Example 10.24] | 70
CC(=O)N[C@@H](C)c1ccc(C2CCN(c3ncc(-c4ccc5c(ccn5C)c4)cn3)CC2)cc1 [Example 10.25] | 320
CC(=O)N[C@@H](C)c1ccc(C2CCN(c3ncc(-c4ccc5c(c4)OCCCO5)cn3)CC2)cc1 [Example 10.26] | 410
CC(=O)N[C@@H](C)c1ccc(C2CCN(c3ncc(-c4ccc(OC(C)C)cc4)cn3)CC2)cc1 [Example 10.27] | 970
COc1cc(-c2cnc(N3CCC(c4ccc([C@H](C)NC(C)=O)cc4)CC3)nc2)ccn1 [Example 10.29] | 130
COc1ccc(-c2cnc(N3CCC(c4ccc([C@H](C)NC(C)=O)cc4)CC3)nc2)cc1C [Example 10.30] | 130
CSc1ccc(-c2cnc(N3CCC(c4ccc([C@H](C)NC(C)=O)cc4)CC3)nc2)cc1 [Example 10.31] | 180
COCc1ccc(-c2cnc(N3CCC(c4ccc([C@H](C)NC(C)=O)cc4)CC3)nc2)cc1 [Example 10.32] | 410
CC(=O)N[C@@H](C)c1ccc(C2CCN(c3ncc(-c4ccc(C)nc4)cn3)CC2)cc1 [Example 10.33] | 640
COc1cc(OC)cc(-c2cnc(N3CCC(c4ccc([C@H](C)NC(C)=O)cc4)CC3)nc2)c1 [Example 10.34] | 210
